# Test: from Langlois, M.; Dubost, J.; Audry, E.; Dallet, P.; Colleter, J. (1989). Simultaneous determination of physicochemical constants usable in QSAR in a series of alpha-adrenergic amines. Analusis : chimie …
row,SMILES,logP
1,O=[N+]([O-])c1ccc(Cl)c(C2NCCc3c2[nH]c2ccccc32)c1 (centres undefined),3.33
2,c1ccc(C(CC2NCCc3c2[nH]c2ccccc32)c2ccccc2)cc1 (centres undefined),3.47
3,Clc1ccc(C2NCCc3c2[nH]c2ccccc32)cc1Cl (centres undefined),3.38
4,c1ccc2c3c([nH]c2c1)C(c1ccc2c(c1)OCO2)NCC3 (centres undefined),3.69

# Second part, the molecule after the results:
row,logP,SMILES
1,3.47,Clc1cccc(C2NCCc3c2[nH]c2ccccc32)c1 (centres undefined)
2,3.16,Fc1ccccc1C1NCCc2c1[nH]c1ccccc21 (centres undefined)
3,3.04,O=[N+]([O-])c1cccc(C2NCCc3c2[nH]c2ccccc32)c1 (centres undefined)
4,3.58,Clc1ccc(C2NCCc3c2[nH]c2ccccc32)c(Cl)c1 (centres undefined)
5,3.34,Clc1cccc(Cl)c1C1NCCc2c1[nH]c1ccccc21 (centres undefined)
